This experiment has as its system MCF-7, U87, PANC-1 and A549. Description: MTT cytotoxicity assay, average over all tested cancer cell lines. The class given is cell-based. Conditions: Homo sapiens, 72 h, read-out: average IC50 against all tested cell lines.

In the case of `CC1=CC(=O)C(C(C)C)=CC1=O` [TQ, Thymoquinone], the concentration for half-maximal inhibition (IC50) is approximately 32 µM.

These data come from paper PMC12516812 (RSC Advances, 2025).
